Assay results as given in publication PMC10143968, “Chamigrane-Type Sesquiterpenes from Laurencia dendroidea as Lead Compounds against Naegleria fowleri” (Marine Drugs, 2023).
Like-named read-outs stand apart in the source and are kept apart here.

Tests used:
N. fowleri ATCC 30808™ = test: In vitro activity against Naegleria fowleri trophozoites (alamarBlue), ATCC 30808 strain; format: cell-based; details: for IC50: trophozoites, alamarBlue, 48 h, 37 °C, read-out: 50% inhibitory concentration (IC50) against N. fowleri ATCC 30808™
Procedure: (§1) The in vitro experiments were carried out using two different Naegleria fowleri type strains, ATCC 30808™ and ATCC 30215™. The cells were grown in axenic conditions as previously described in other works of our group. The strains were cultured in a level 3 biological security facility at the Instituto Universitario de Enfermedades Tropicales y Salud Pública de Canarias, Universidad de La Laguna, Spain.
(§2) An alamarBlue™-based colorimetric assay was used to determine the in vitro activity of the chamigrane-type sesquiterpenes. Briefly, a known concentration of the trophozoites (2 × 10^5 cells/mL) was incubated with serial dilutions of the compounds. After, the alamarBlue™ reagent was added and the plate was placed at 37 °C for 48 h. Finally, the fluorescence was read and a non-linear regression analysis with a 95% confidence limit, in order to reckon the 50% and 90% inhibitory concentration (IC50 and IC90), was performed.
(§3) The in vitro IC50, IC90 and CC50 were determined by a non-linear regression analysis with a 95% of confidence limit using the Graphpad Prism version 9.0 (GraphPad Software; CA; USA). Three independent experiments were performed to obtain each data, which is expressed as mean ± standard deviation (SD).

N. fowleri ATCC 30215™ = test: In vitro activity against Naegleria fowleri trophozoites (alamarBlue), ATCC 30215 strain; format: cell-based; details: 37 °C, read-out: 50% inhibitory concentration (IC50) against N. fowleri ATCC 30215™
Procedure: as §1, §2, §3

[1] = system: Murine Macrophages J774.A1; test: In vitro cytotoxicity (alamarBlue); format: cell-based; details: mouse, 24 h
Procedure: (§4) The cytotoxicity assays were carried out in a murine macrophages cell line (ATCC TIB-67). The cells were incubated in Dulbecco’s Modified Eagle’s medium (GIBCO, Thermo Fisher Scientific, Madrid, Spain) (DMEM, w/v) supplemented with 10% (v/v) fetal bovine serum (FBS) and 10 µg/mL of gentamicin (Sigma-Aldrich, Madrid, Spain) at 37 °C in a 5% of CO2 atmosphere. The in vitro cytotoxicity of the compounds was determined following the alamarBlue ™ protocol mentioned in the previous section. Murine macrophages were incubated with serial dilutions of the evaluated molecules for 24 h at 37 °C and in presence of 5% of CO2. Finally, the 50% cytotoxic concentration (CC50) was determined after reading the fluorescence. The in vitro IC50, IC90 and CC50 were determined by a non-linear regression analysis with a 95% of confidence limit using the Graphpad Prism version 9.0 (GraphPad Software; CA; USA). Three independent experiments were performed to obtain each data, which is expressed as mean ± standard deviation (SD).

[2] = system: Naegleria fowleri cysts (ATCC 30808™); test: In vitro cysticidal activity (alamarBlue fluorometric assay); format: cell-based; details: ATCC30808, ATCC 30808™ cysts, 24 h incubation then 72 h with alamarBlue, read-out: IC50 against N. fowleri cysts (cysticidal activity)
Procedure: For the in vitro cysticidal activity assays, the Naegleria fowleri ATCC 30808™ strain was used. Cysts were obtained transferring the bactocasitone grown trophozoites to the MYAS medium and keeping them for ten days in slight agitation. The in vitro activity of the compounds against the Naegleria fowleri cyst was determined using an alamarBlue™-based fluorometric assay as previously described. Mature cysts were incubated with serial dilutions of the evaluated compound for 24 h at 37 °C. After that, the medium was removed and fresh bactocasitone was added. Later, the alamarBlue® reagent was placed and the plates were incubated for 72 additional hours at 37 °C. Finally, the EnSpire Multimode Plate Reader (PerkinElmer, Madrid, Spain) was used to read the fluorescence and calculate the IC50 as described in Section 4.3. The in vitro IC50, IC90 and CC50 were determined by a non-linear regression analysis with a 95% of confidence limit using the Graphpad Prism version 9.0 (GraphPad Software; CA; USA). Three independent experiments were performed to obtain each data, which is expressed as mean ± standard deviation (SD).

[3] = system: Naegleria fowleri ATCC 30808™ trophozoites; test: Chromatin condensation (Hoechst 33342/PI double stain); format: cell-based; details: IC90 (2.45 µM), 24 h
Procedure: (§5) For the determination of the type of cell death that induces (+)-elatol (1), different commercial kits were used. […] Next, the reagents corresponding to each kit were added, allowing the appearance of programmed cell death (PCD) processes in the cells to be observed. Moreover, the percentage of stained cells was determined using the EVOS™ M5000 Software (Invitrogen by Thermo Fisher Scientific). All experiments were performed in triplicate and five different images (×40) were processed each time.
The condensed chromatin was detected with the double-stain apoptosis detection kit (Hoechst 33342/PI) (Life Technologies, Madrid, Spain). The Hoechst 33342 stain emits blue fluorescence in the presence of condensed chromatin while the Propidium iodide (PI) is able to travel through the membrane of dead cells and emit a red fluorescence.
(§6) The percentage of stained cells determination in the PCD assays was calculated using the EVOS™ M5000 Software (Invitrogen by Thermo Fisher Scientific). […] The bar graph of the mitochondrial membrane potential evaluation illustrates the mean fluorescence and SD emitted by the aggregate and monomer forms of the JC-1 stain. […] Moreover, in all the PCD assays, a one-way analysis of variance (ANOVA) was assessed to study the differences between the treated and negative control trophozoites. ** p < 0.01; *** p < 0.001; **** p < 0.0001 significant differences.

[4] = system: Naegleria fowleri (ATCC 30808™) trophozoites; format: cell-based; details: not told
Procedure: as §5
The permeability of the plasma membrane was assessed with the SYTOX Green® stain. The plasma membrane is impermeable to the dye in healthy conditions. However, when the permeability of the plasma membrane is compromised, the SYTOX Green® enters the cells, binds the DNA and emits an intense green fluorescence at 523 nm wavelength.
as §6

[5] = system: Naegleria fowleri ATCC 30808™ trophozoites; test: Reactive oxygen species production (CellROX Deep Red); format: cell-based; details: IC90 (2.45 µM), 24 h
Procedure: as §5
To determine the oxidative damage, the CellROX Deep Red fluorescent assay (Thermo Fisher Scientific) was used. […] These reagents produce red fluorescence with maximum absorption/emission peaks of ~644/665 nm when facing the reactive oxygen species (ROS) in the cytoplasm.
as §6

[6] = system: Naegleria fowleri ATCC 30808™ trophozoites; test: Mitochondrial membrane potential (JC-1); format: cell-based; details: IC90 (2.45 µM), 24 h
Procedure: as §5
For determining mitochondrial damage in treated amoebae, two different assays were performed. Firstly, to measure the collapse of the transmembrane electrochemical gradient, a lipophilic cationic dye called JC-1 (Cayman Chemicals Vitro SA, Madrid, Spain) was used. […] When the membrane potential is high, the fluorophore will be found in the mitochondria in the j-aggregates form emitting red fluorescence at 595 nm. On the other hand, when membrane depolarization occurs, the reagent disperses and remains in its monomeric form showing green fluorescence at 535 nm.
The percentage of stained cells determination in the PCD assays was calculated using the EVOS™ M5000 Software (Invitrogen by Thermo Fisher Scientific). […] The bar graph of the mitochondrial membrane potential evaluation illustrates the mean fluorescence and SD emitted by the aggregate and monomer forms of the JC-1 stain. […]

[7] = system: Naegleria fowleri ATCC 30808™ trophozoites; test: ATP production (CellTiter-Glo); format: cell-based; details: IC90 (2.45 µM), 24 h
Procedure: as §5
Afterwards, to validate the mitochondrial damage, the levels of ATP produced in the amoebae treated with the IC90 of the compound were analyzed using the CellTiter-Glo® Luminescent Cell Viability Assay reagent (Promega Biotech Ibérica S.L, Madrid, Spain) following manufacturer’s instructions.

[8] = In vitro cytotoxicity (alamarBlue); format: cell-based, murine; details: mouse
Procedure: as §4

[9] = Naegleria fowleri, ATCC30808, 48 h
[10] = Naegleria fowleri, ATCC30215, 48 h
[11] = J774.A1 murine macrophage cell line (ATCC TIB-67), alamarBlue, 24 h, 37 °C, read-out: 50% cytotoxic concentration (CC50) against murine macrophages J774.A1

For `C=C1CC(O)C(Br)C(C)(C)C12CCC(C)=C(Cl)C2` (single isomer, unassigned; (+)) [(+)-Elatol (1), (+)-elatol], the IC90 (N. fowleri ATCC 30808™; Naegleria fowleri, ATCC30808, ATCC 30808™ strain) was 2.45 µM, the IC50 (N. fowleri ATCC 30808™) was 1.08 ± 0.09 µM and the IC50 (N. fowleri ATCC 30215™; 48 h) was 1.14 ± 0.09 µM. For the same molecule, the CC50 [1] was 61.5 ± 13 µM, the IC50 [2] was 1.14 µM and the “chromatin condensation (Hoechst 33342 fluorescence)” value [3] was “intense blue fluorescence”. For the same molecule, the “propidium iodide staining (red fluorescence)” value [3] was “absence of the red fluorescence”, the “plasma membrane permeability (SYTOX Green fluorescence)” value [4] was “plasma membrane is damaged in treated cells” and the “ROS generation (CellROX Deep Red)” value [5] was “induces the over-generation of ROS”. The “mitochondrial membrane potential (JC-1)” value [6] was “depolymerization of the mitochondrial membrane potential” and the “reduction of ATP production compared to untreated cells” value [7] was 82.11%.

For `C=C1CC(O)C(Br)C(C)(C)C12CCC(C)=C(Cl)C2` (single isomer, unassigned; (-)) [(−)-Elatol (2), (−)-elatol], the “fold less potent than (+)-elatol (1)” value (N. fowleri ATCC 30808™; IC50 ratio against N. fowleri trophozoites) was 34 fold, the IC50 (N. fowleri ATCC 30808™) was 36.8 ± 8.03 µM and the IC50 (N. fowleri ATCC 30215™; 48 h) was 38 ± 7.61 µM. The CC50 [1] was over 150 µM.

Molecule `C=C1CC(O)C(Br)C(C)(C)C12CCC(C)(Cl)C(Br)C2` (single isomer, unassigned; (-)) [(−)-Rogiolol (5), (−)-rogiolol] has an IC50 (N. fowleri ATCC 30808™; [9]) of 22.5 ± 5.81 µM, an IC50 (N. fowleri ATCC 30215™; [10]) of 9.71 ± 0.82 µM and a CC50 at 24 h ([8]; 50% cytotoxic concentration (CC50) against murine macrophages J774.A1) of 142 ± 17.2 µM.

Work on `C=C1C[C@H](O)CC(C)(C)[C@@]12CCC(C)=C(Cl)C2` [(+)-Debromoelatol (3), (+)-debromoelatol] yielded an IC50 (N. fowleri ATCC 30808™; [9]) of over 98.1 µM.

Work on `C=C1C[C@H](O)[C@H](Br)C(C)(C)[C@]12CC=C(C)CC2` [(+)-Dechloroelatol (4), (+)-dechloroelatol] yielded an IC50 (N. fowleri ATCC 30808™; [9]) of over 83.5 µM.

Molecule `C=C1C[C@@H](O)[C@@H](Br)C(C)(C)[C@]12CC[C@@](C)(O)[C@@H](Cl)C2` [(+)-Dendroidiol (7), (−)-dendroidiol] has an IC50 (N. fowleri ATCC 30808™; [9]) of over 71.1 µM.

For `C=C1CC[C@@H](Br)C(C)(C)[C@@]12CC[C@@](C)(Br)[C@H](Cl)C2` [(+)-Obtusane (10), (+)-obtusane], the IC50 (N. fowleri ATCC 30808™; [9]) was over 62.7 µM.

`C=C1C[C@@H](O)[C@@H](Br)C(C)(C)[C@]12CC[C@](C)(Br)[C@@H](Cl)C2` [(+)-Obtusol (9), (+)-obtusol] gave an IC50 (N. fowleri ATCC 30808™; [9]) of over 60.3 µM.

With `CC1=CC[C@@H](Br)C(C)(C)[C@]12CC[C@](C)(Br)[C@@H](Cl)C2` [(−)-3,10-dibromo-4-chloro-alpha-chamigrane] the IC50 (N. fowleri ATCC 30808™; [9]) was over 62.7 µM.

Work on `C=C1C[C@@H](O)[C@@H](Br)C(C)(C)[C@]12CC[C@@](C)(Cl)[C@H](Br)C2` [(−)-Cartilagineol (8), (−)-cartilagenol] yielded an IC50 (N. fowleri ATCC 30808™; [9]) of over 60.3 µM.

`C[C@@H]1[C@H](O)[C@@H](C)/C=C/C=C/C=C/C=C/C=C/C=C/C=C/[C@H](O[C@@H]2O[C@H](C)[C@@H](O)[C@H](N)[C@@H]2O)C[C@@H]2O[C@](O)(C[C@@H](O)C[C@@H](O)[C@H](O)CC[C@@H](O)C[C@@H](O)CC(=O)O[C@H]1C)C[C@H](O)[C@H]2C(=O)O` [Amphotericin B, reference compound] gave an IC50 (N. fowleri ATCC 30808™; [9]) of 0.12 ± 0.03 µM and a CC50 at 24 h [8, 11] of over 200 µM.

Work on `CCCCCCCCCCCCCCCCOP(=O)([O-])OCC[N+](C)(C)C` [Miltefosine, reference compound] yielded an IC50 (N. fowleri ATCC 30808™; [9]) of 38.7 ± 4.23 µM, an IC50 (N. fowleri ATCC 30215™; [10]) of 81.6 ± 7.23 µM and a CC50 at 24 h [8, 11] of 128 ± 8.85 µM.
